Data taken from article PMC4906375, “Contribution of Amphipathicity and Hydrophobicity to the Antimicrobial Activity and Cytotoxicity of β-Hairpin Peptides” (ACS Infectious Diseases, 2016).
Where two headings read alike, the source gives them in different places. Residues, ends and D or L forms follow the SMILES beside them.

Assays:
[1] = Plasma protein binding, ultrafiltration; assay type: in vitro ADME; settings: 100% human plasma, read-out: PPB (%) (converted)
Experimental: Plasma protein binding was performed using an ultrafiltration method.[58]
Plasma protein binding assay
Plasma protein binding was performed using an Ultrafiltration method.13 Fresh frozen human plasma was pooled from O Negative (Product number 1274512) blood from the R & D division of the Australian Red Cross Blood Services (Brisbane). Stock solutions (20 mg/mL) of the test compounds were prepared in H2O. Test compounds (40 µg/mL) were incubated in 100 % human plasma at 37 °C for 30 min (1 mL volume). For unfiltered samples, an aliquot (50 µL) was removed, diluted with PBS (50 µL) and quenched with icePcold precipitating solution comprising 0.5 µM carbutamide MS internal standard in acetonitrile : methanol : formic acid (1: 1 : 0.001). Samples were incubated at 4 °C for 30 min then centrifuged at 14000 × g for 8 min, with the clear supernatant transferred to a vial for LC/MS/MS analysis.
For filtered samples, the plasma sample (250 µL) was filtered using Amicon UltraP0.5 Centrifugal Filter Devices 30K NMWL at 14000 × g for 7 min and then an aliquot (50 µL) was processed as described for unfiltered samples. The fraction of unbound compound was calculated by determining the concentration of the filtered sample and the concentration of unfiltered sample. All samples were performed in triplicate with sulfamethoxazole as a […]

[2] = hemolysis (%) at 300 μg/mL, human erythrocytes, 3 h, relative to 100% hemolysis by 1% Triton X-100
[3] = test system: human erythrocytes; settings: red cells of human, 3 h
[4] = test system: HEK293 cells; assay: Cytotoxicity, Alamar Blue (resazurin) assay; assay type: cell-based, human; settings: HEK293; highest concentration (300 μM) tested
Experimental: (§1) Cytotoxicity to HEK293 and HepG2 cells was determined using the Alamar Blue (resazurin) assay,[55],[56] with 24 h of incubation and either 1 or 10% serum concentration. Full assay details are included in the Supporting Information.
(§2) Cytotoxicity. Cytotoxicity to HEK293 and HepG2 cells was determined using the Alamar Blue (resazurin) assay,3, 4 For the assays supplemented with 1 % FBS as final concentration the cells were seeded one day prior to the assay (3,000 per 20 µL for HEK293 and 4,000 per 20 µL for HepG2) with DMEM + 2 % FBS. The compounds were prepared as described below, using DMEM with no FBS instead to give the final FBS concentration of 1 %.
(§3) The highest concentration the compounds were tested was 300 µg/mL. A dilution series of 1:3 fold steps in DMEM (GIBCOPInvitrogen, cat. no. 11995P073) + 10 % FBS was created (concentration range of 600 µg/mL – 0.28 µg/mL), and 20 µL of these 2x concentrated compound dilutions were added in duplicates to wells of a black wall, clear bottom 384Pwells cell culture plate. For the assays with 1 % FBS the compounds in 0 % FBS were added to the existing cell plates in 2 % FBS. 200 µM Tamoxifen (Sigma T5648) served as negative control and in addition a serial dilution of tamoxifen, starting at 200 µM (74 µg/mL), was included as a dose response control (1 in 2 dilution series for tamoxifen). For the assay with 10 % FBS, HepG2 cells were seeded at 5000 cells per well, in a volume of 20 µL in DMEM medium + 10 % of FBS and added to the 20 µL of compound solution (total volume of 40 µL), resulting in a final compound concentration range of 300 µg/mL to 0.14 µg/mL.
(§4) Cells were incubated together with the compounds for 20 h at 37 °C, 5 % CO2.
(§5) After the incubation, 5 µL of 100 µM (25 µg/mL) resazurin dissolved in PBS (final concentration was approximately 11 µM) was added to each well. The plates were then incubated for 3 h at 37 °C, 5 % CO2. The fluorescence intensity was read using the TECAN Infinite M1000 PRO with excitation/emission 560/590. The data was analysed by Graph Pad Prism software. Results are presented as the average percentage of control ± SD for each set of duplicate wells using the following equation: Cell survival % = (FISAMPLE – FINegative/FIUNTREATED –FINegative)*100. (100 µg/mL tamoxifen was set as 0 % survival, media

[5] = test system: HepG2 cells; assay: Cytotoxicity, Alamar Blue (resazurin) assay; assay type: cell-based, human; settings: HepG2; highest concentration (300 μM) tested
Experimental: as §1, §2, §3, §4, §5

[6] = test system: human erythrocytes; assay: Hemolysis assay; settings: 3 h, relative to 100% hemolysis by 1% Triton X-100

CC(C)[C@@H]1NC(=O)CNC(=O)[C@H](CC(N)=O)NC(=O)[C@H](CCCNC(=N)N)NC(=O)[C@H](Cc2ccc(O)cc2)NC(=O)[C@H](C(C)C)NC(=O)[C@@H]2CSSC[C@H](NC(=O)[C@H](C(C)C)NC(=O)[C@H](CCCNC(=N)N)NC1=O)C(=O)N[C@@H](Cc1ccc(O)cc1)C(=O)N[C@@H](CCCNC(=N)N)C(=O)N[C@@H](CCCNC(=N)N)C(=O)N[C@H](C(=O)N[C@@H](CC(N)=O)C(=O)O)CSSC[C@H](NC(=O)[C@H](Cc1ccccc1)NC(=O)CN)C(=O)N[C@@H](Cc1c[nH]c3ccccc13)C(=O)N[C@@H](Cc1ccc(O)cc1)C(=O)N[C@@H](C(C)C)C(=O)N2 [arenicin-3] (HELM PEPTIDE1{G.F.C.W.Y.V.C.V.Y.R.N.G.V.R.V.C.Y.R.R.C.N}$PEPTIDE1,PEPTIDE1,3:R3-20:R3|PEPTIDE1,PEPTIDE1,7:R3-16:R3$$$V2.0)
fraction unbound [1]: 0.32
hemolysis [2]: 4%
hemolysis (%) at 300 μg/mL [3]: 4.4 ± 1.1%

CC(C)[C@@H]1NC(=O)[C@H](CCCNC(=N)N)NC(=O)[C@H](Cc2ccccc2)NC(=O)[C@@H](NC(=O)[C@H](Cc2c[nH]c3ccccc23)NC(=O)[C@H](CCCNC(=N)N)NC(=O)[C@@H](N)CCCNC(=N)N)CSSC[C@@H](C(=O)N[C@@H](CCCNC(=N)N)C(N)=O)NC(=O)[C@H](CCCCN)NC(=O)[C@H](CCCNC(=N)N)NC(=O)[C@H](Cc2ccc(O)cc2)NC(=O)[C@@H]2CSSC[C@H](NC1=O)C(=O)N[C@@H](Cc1ccc(O)cc1)C(=O)N[C@@H](CCCNC(=N)N)C(=O)NCC(=O)N[C@@H](Cc1ccccc1)C(=O)N2 [polyphemusin-1] (HELM PEPTIDE1{R.R.W.C.F.R.V.C.Y.R.G.F.C.Y.R.K.C.R.[am]}$PEPTIDE1,PEPTIDE1,4:R3-17:R3|PEPTIDE1,PEPTIDE1,8:R3-13:R3$$$V2.0)
fraction unbound [1]: 0.37
hemolysis [2]: ~30%

[H][C@]12CSSC[C@]([H])(NC(=O)[C@]([H])([C@@H](C)CC)NC(=O)CNC(=O)[C@H](CCCNC(=N)N)NC(=O)[C@H](Cc3ccc(O)cc3)NC1=O)C(=O)N[C@@H](Cc1ccc(O)cc1)C(=O)N[C@@H](CCCNC(=N)N)C(=O)N[C@@H](CCCNC(=N)N)C(=O)N[C@H](C(=O)N[C@@H](CCCNC(=N)N)C(N)=O)CSSC[C@H](NC(=O)[C@H](Cc1c[nH]c3ccccc13)NC(=O)[C@@H](N)CCCCN)C(=O)N[C@@H](Cc1ccccc1)C(=O)N[C@@H](CCCNC(=N)N)C(=O)N[C@@H](C(C)C)C(=O)N2 [tachyplesin-1] (HELM PEPTIDE1{K.W.C.F.R.V.C.Y.R.G.I.C.Y.R.R.C.R.[am]}$PEPTIDE1,PEPTIDE1,3:R3-16:R3|PEPTIDE1,PEPTIDE1,7:R3-12:R3$$$V2.0)
fraction unbound [1]: 0.24
hemolysis [2]: ~30%
hemolysis (%) at 300 μg/mL [3]: 27.8 ± 3.9%

CC[C@H](C)[C@H](NC(=O)[C@@H](NC(=O)[C@@H]1CCCN1C(=O)[C@@H](NC(=O)[C@@H]1CCCN1C(=O)[C@H](CCCCN)NC(=O)[C@H](CCCCN)NC(=O)[C@H](CO)NC(=O)CN)C(C)C)[C@@H](C)CC)C(=O)N[C@@H](Cc1ccc(O)cc1)C(=O)N[C@H]1CSSC[C@@H](C(=O)N[C@@H](CCC(N)=O)C(=O)N[C@@H](CCCNC(=N)N)C(=O)N[C@@H](CCSC)C(N)=O)NC(=O)[C@H](CCCCN)NC(=O)CNC(=O)[C@H]([C@@H](C)O)NC(=O)[C@H](CCCNC(=N)N)NC(=O)[C@H](CCCNC(=N)N)NC(=O)[C@H](CC(N)=O)NC1=O [thanatin]
fraction unbound [1]: 0.08
hemolysis [2]: 1.3 ± 0.4%
cytotoxicity at the highest concentration tested [4]: nontoxic
cytotoxicity at the highest concentration tested [5]: nontoxic
hemolysis (%) at 300 μg/mL [6]: nonhemolytic
